Experimental data from patent US9278962B2 (Cytokinetics, Inc., priority 2011, dated 2016).

These compounds were tested on rabbit skeletal myofibrils (approximately 90% fast fibers) (assay: Activation of fast skeletal myofibrils (PUMA coupled-enzyme ATPase assay, AC1.4)). Details: Table 2; concentration at which the compound increased enzymatic activity by 40%; calcium at pCa25.
Type: biochemical
With `C[C@H](CNc1nc(-c2cncc(C#N)c2)ns1)c1ccc(F)cc1` [5-(5-{[(2S)-2-(4-fluorophenyl)propyl]amino}-1,2,4-thiadiazol-3-yl)pyridine-3-carbonitrile] the “Mean AC1.4” value was “C (C=10-20 uM)”. In the case of `C[C@H](CNc1nc(-c2cncc(C(N)=O)c2)ns1)c1ccc(F)cc1` [5-(5-{[(2S)-2-(4-fluorophenyl)propyl]amino}-1,2,4-thiadiazol-3-yl)pyridine-3-carboxamide], the “Mean AC1.4” value is reported as “B (B=1-10 uM)”. `CC(C)(CNc1nc(C(N)=O)ns1)c1ccc(F)cc1` [5-{[2-(4-Fluorophenyl)-2-methylpropyl]amino}-1,2,4-thiadiazole-3-carboxamide] was tested, and the “Mean AC1.4” value was “C (C=10-20 uM)”. `COc1cccc(Cc2nsc(NCCc3ccc4c(c3)OCO4)n2)c1` [(2-(2H-benzo[d]1,3-dioxolan-5-yl)ethyl){3-[(3-methoxyphenyl)methyl](1,2,4-thiadiazol-5-yl)}amine] was tested, and the “Mean AC1.4” value was “D (D=>20 uM)”. `COc1cccc(Cc2nsc(Nc3ccc(Cl)c(Cl)c3)n2)c1` [(3,4-dichlorophenyl){3-[(3-methoxyphenyl)methyl](1,2,4-thiadiazol-5-yl)}amine] was tested, and the “Mean AC1.4” value was “D (D=>20 uM)”. For `Fc1ccc(Cc2nsc(Nc3ccc(Cl)c(Cl)c3)n2)cc1` [(3,4-dichlorophenyl){3-[(4-fluorophenyl)methyl](1,2,4-thiadiazol-5-yl)}amine], the “Mean AC1.4” value was “D (D=>20 uM)”. `CCc1nsc(NCC(C)(C)c2ccc(F)cc2)n1` [(3-ethyl(1,2,4-thiadiazol-5-yl))[2-(4-fluorophenyl)-2-methylpropyl]amine] was tested, and the “Mean AC1.4” value was “B (B=1-10 uM)”. In the case of `CC(C)(O)/C=C/c1nsc(NCC(C)(C)c2ccc(F)cc2)n1` [(3E)-4-(5-{[2-(4-fluorophenyl)-2-methylpropyl]amino}(1,2,4-thiadiazol-3-yl))-2-methylbut-3-en-2-ol], the “Mean AC1.4” value is reported as “B (B=1-10 uM)”. `CC(C)(CNc1nc(CCN2CC[C@@H](O)C2)ns1)c1ccc(F)cc1` [(3R)-1-[2-(5-{[2-(4-fluorophenyl)-2-methylpropyl]amino}(1,2,4-thiadiazol-3-yl))ethyl]pyrrolidin-3-ol] was tested, and the “Mean AC1.4” value was “C (C=10-20 uM)”. With `CC(C)(CNc1nc(CCN2CC[C@H](O)C2)ns1)c1ccc(F)cc1` [(3S)-1-[2-(5-{[2-(4-fluorophenyl)-2-methylpropyl]amino}(1,2,4-thiadiazol-3-yl))ethyl]pyrrolidin-3-ol] the “Mean AC1.4” value was “C (C=10-20 uM)”. For `CC(C)(CNc1nc(CN2CC[C@H](O)C2)ns1)c1ccc(F)cc1` [(3S)-1-[(5-{[2-(4-fluorophenyl)-2-methylpropyl]amino}(1,2,4-thiadiazol-3-yl))methyl]pyrrolidin-3-ol], the “Mean AC1.4” value was “D (D=>20 uM)”. In the case of `COc1cccc(Cc2nsc(Nc3ccc(Cl)cc3)n2)c1` [(4-chlorophenyl){3-[(3-methoxyphenyl)methyl](1,2,4-thiadiazol-5-yl)}amine], the “Mean AC1.4” value is reported as “D (D=>20 uM)”. `Fc1ccc(Cc2nsc(Nc3ccc(Cl)cc3)n2)cc1` [(4-chlorophenyl){3-[(4-fluorophenyl)methyl](1,2,4-thiadiazol-5-yl)}amine] was tested, and the “Mean AC1.4” value was “D (D=>20 uM)”. With `Fc1cccnc1C1(CNc2nsc(-c3ccccc3)n2)CCC1` [N-((1-(3-fluoropyridin-2-yl)cyclobutyl)methyl)-5-phenyl-1,2,4-thiadiazol-3-amine] the “Mean AC1.4” value was “D (D=>20 uM)”.

Same assay, conditions: Table 3; concentration at which the compound increased enzymatic activity by 40%; calcium at pCa25
For `Fc1cccnc1C1(CNc2nnc(Cc3ccccc3)s2)CCC1` [5-benzyl-N-((1-(3-fluoropyridin-2-yl)cyclobutyl)methyl)-1,3,4-thiadiazol-2-amine], the “Mean AC1.4” value was “D (D=>20 uM)”. With `Fc1cccnc1C1(CNc2nnc(C3CCCC3)s2)CCC1` [5-cyclopentyl-N-((1-(3-fluoropyridin-2-yl)cyclobutyl)methyl)-1,3,4-thiadiazol-2-amine] the “Mean AC1.4” value was “B (B=1-10 uM)”. With `Cn1cc(-c2nnc(NCC3(c4ncccc4F)CCC3)s2)cn1` [N-((1-(3-fluoropyridin-2-yl)cyclobutyl)methyl)-5-(1-methyl-1H-pyrazol-4-yl)-1,3,4-thiadiazol-2-amine] the “Mean AC1.4” value was “D (D=>20 uM)”. `Cn1nccc1-c1nnc(NCC2(c3ncccc3F)CCC2)s1` [N-((1-(3-fluoropyridin-2-yl)cyclobutyl)methyl)-5-(1-methyl-1H-pyrazol-5-yl)-1,3,4-thiadiazol-2-amine] was tested, and the “Mean AC1.4” value was “D (D=>20 uM)”. With `Fc1cccnc1C1(CNc2nnc(-c3nccs3)s2)CCC1` [N-((1-(3-fluoropyridin-2-yl)cyclobutyl)methyl)-5-(thiazol-2-yl)-1,3,4-thiadiazol-2-amine] the “Mean AC1.4” value was “B (B=1-10 uM)”. `Fc1cccnc1C1(CNc2nnc(-c3cscn3)s2)CCC1` [N-((1-(3-fluoropyridin-2-yl)cyclobutyl)methyl)-5-(thiazol-4-yl)-1,3,4-thiadiazol-2-amine] was tested, and the “Mean AC1.4” value was “B (B=1-10 uM)”. In the case of `Fc1cccnc1C1(CNc2nnc(-c3cccs3)s2)CCC1` [N-((1-(3-fluoropyridin-2-yl)cyclobutyl)methyl)-5-(thiophen-2-yl)-1,3,4-thiadiazol-2-amine], the “Mean AC1.4” value is reported as “B (B=1-10 uM)”. In the case of `Cc1ccccc1-c1nnc(NCC2(c3ncccc3F)CCC2)s1` [N-((1-(3-fluoropyridin-2-yl)cyclobutyl)methyl)-5-o-tolyl-1,3,4-thiadiazol-2-amine], the “Mean AC1.4” value is reported as “B (B=1-10 uM)”. For `Cc1ccc(-c2nnc(NCC3(c4ncccc4F)CCC3)s2)cc1` [N-((1-(3-fluoropyridin-2-yl)cyclobutyl)methyl)-5-p-tolyl-1,3,4-thiadiazol-2-amine], the “Mean AC1.4” value was “B (B=1-10 uM)”. `Fc1cccnc1C1(CNc2nnc(-c3ccccc3)s2)CCC1` [N-((1-(3-fluoropyridin-2-yl)cyclobutyl)methyl)-5-phenyl-1,3,4-thiadiazol-2-amine] was tested, and the “Mean AC1.4” value was “A (A=<1 uM)”. In the case of `Cn1cc(-c2nnc(NC[C@]3(c4ncccc4F)C[C@H](F)C3)s2)cn1` [N-((3-fluoro-1-(3-fluoropyridin-2-yl)cyclobutyl)methyl)-5-(1-methyl-1H-pyrazol-4-yl)-1,3,4-thiadiazol-2-amine], the “Mean AC1.4” value is reported as “D (D=>20 uM)”.

Same assay, conditions: Table 4; concentration at which the compound increased enzymatic activity by 40%; calcium at pCa25
In the case of `CC(C)(CNc1nc2cc(Cl)ccc2s1)c1ccc(F)cc1` [5-chloro-N-(2-(4-fluorophenyl)-2-methylpropyl)benzo[d]thiazol-2-amine], the “Mean AC1.4” value is reported as “B (B=1-10 uM)”. For `CC(C)(CNc1nc2ccc(Cl)cc2s1)c1ccc(F)cc1` [6-chloro-N-(2-(4-fluorophenyl)-2-methylpropyl)benzo[d]thiazol-2-amine], the “Mean AC1.4” value was “A (A=<1 uM)”. For `Fc1cccnc1C1(CNc2nc3ccc(Cl)cc3s2)CCC1` [6-chloro-N-((1-(3-fluoropyridin-2-yl)cyclobutyl)methyl)benzo[d] thiazol-2-amine], the “Mean AC1.4” value was “B (B=1-10 uM)”. With `COc1cccnc1C1(CNc2nc3ccc(Cl)cc3s2)CCC1` [6-chloro-N-((1-(3-methoxypyridin-2-yl)cyclobutyl)methyl)benzo[d] thiazol-2-amine] the “Mean AC1.4” value was “B (B=1-10 uM)”. In the case of `Fc1ccc(C2(CNc3nc4ccc(Cl)cc4s3)CCC2)cc1` [6-chloro-N-((1-(4-fluorophenyl)cyclobutyl)methyl) benzo[d]thiazol-2-amine], the “Mean AC1.4” value is reported as “A (A=<1 uM)”. With `COc1ccc(C2(CNc3nc4ccc(Cl)cc4s3)CCC2)nc1` [6-chloro-N-((1-(5-methoxypyridin-2-yl)cyclobutyl)methyl)benzo[d] thiazol-2-amine] the “Mean AC1.4” value was “B (B=1-10 uM)”. In the case of `Clc1ccc2nc(NCC3(c4ccccn4)CCC3)sc2c1` [6-chloro-N-((1-(pyridin-2-yl)cyclobutyl)methyl)benzo[d] thiazol-2-amine], the “Mean AC1.4” value is reported as “B (B=1-10 uM)”. `CC(C)(CNc1nc2cccc(Cl)c2s1)c1ccc(F)cc1` [7-chloro-N-(2-(4-fluorophenyl)-2-methylpropyl)benzo[d]thiazol-2-amine] was tested, and the “Mean AC1.4” value was “B (B=1-10 uM)”. In the case of `COc1ccc2nc(NCC(C)(C)c3ccc(F)cc3)sc2c1` [N-(2-(4-fluorophenyl)-2-methylpropyl)-6-methoxybenzo[d]thiazol-2-amine], the “Mean AC1.4” value is reported as “A (A=<1 uM)”. With `CC(C)(CNc1nc2ccccc2s1)c1ccc(F)cc1` [N-(2-(4-fluorophenyl)-2-methylpropyl)benzo[d]thiazol-2-amine] the “Mean AC1.4” value was “B (B=1-10 uM)”. With `Fc1cccnc1C1(CNc2nc3ccccc3s2)CCC1` [N-((1-(3-fluoropyridin-2-yl)cyclobutyl)methyl)benzo[d] thiazol-2-amine] the “Mean AC1.4” value was “C (C=10-20 uM)”.

Same assay, conditions: Table 5; concentration at which the compound increased enzymatic activity by 40%; calcium at pCa25
For `CC(C)(CNc1nc(-c2cccnc2)no1)c1ccc(F)cc1` [N-(2-(4-fluorophenyl)-2-methylpropyl)-3-(pyridin-3-yl)-1,2,4-oxadiazol-5-amine], the “Mean AC1.4” value was “C (C=10-20 uM)”. With `Fc1cccnc1C1(CNc2cnn(-c3ccccc3)c2)CCC1` [N-((1-(3-fluoropyridin-2-yl)cyclobutyl)methyl)-1-phenyl-1H-pyrazol-4-amine] the “Mean AC1.4” value was “D (D=>20 uM)”. `Fc1cccnc1C1(CNc2cnc(-c3ccccc3)s2)CCC1` [N-((1-(3-fluoropyridin-2-yl)cyclobutyl)methyl)-2-phenylthiazol-5-amine] was tested, and the “Mean AC1.4” value was “D (D=>20 uM)”. `Cc1nc(NCC2(c3ncccc3F)CCC2)sc1-c1ccccc1` [N-((1-(3-fluoropyridin-2-yl)cyclobutyl)methyl)-4-methyl-5-phenylthiazol-2-amine] was tested, and the “Mean AC1.4” value was “A (A=<1 uM)”. In the case of `Fc1cccnc1C1(CNc2nc(-c3ccccc3)co2)CCC1` [N-((1-(3-fluoropyridin-2-yl)cyclobutyl)methyl)-4-phenyloxazol-2-amine], the “Mean AC1.4” value is reported as “D (D=>20 uM)”. `Fc1cccnc1C1(CNc2nc(-c3ccccc3)cs2)CCC1` [N-((1-(3-fluoropyridin-2-yl)cyclobutyl)methyl)-4-phenylthiazol-2-amine] was tested, and the “Mean AC1.4” value was “B (B=1-10 uM)”. `Fc1cccnc1C1(CNc2noc(-c3ccccc3)n2)CCC1` [N-((1-(3-fluoropyridin-2-yl)cyclobutyl)methyl)-5-phenyl-1,2,4-oxadiazol-3-amine] was tested, and the “Mean AC1.4” value was “D (D=>20 uM)”. `Fc1cccnc1C1(CNc2nnc(-c3ccccc3)o2)CCC1` [N-((1-(3-fluoropyridin-2-yl)cyclobutyl)methyl)-5-phenyl-1,3,4-oxadiazol-2-amine] was tested, and the “Mean AC1.4” value was “D (D=>20 uM)”. With `Fc1cccnc1C1(CNc2ncc(-c3ccccc3)s2)CCC1` [N-((1-(3-fluoropyridin-2-yl)cyclobutyl)methyl)-5-phenylthiazol-2-amine] the “Mean AC1.4” value was “A (A=<1 uM)”.
